Eleven compounds from PubChem BioAssay (NCI) can be followed below.

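A five-concentration, 48-hour dose response in 96-well plates underlies each endpoint, interpolated linearly between surrounding concentrations. At the TGI there is no net growth.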 Where a SMILES comes first, the peptide text is derived from it. Bridges are numbered along the chain shown (N, C = ends). [ ]: non-standard residue; d: D form. Aib = CC(C)(N)C(=O)O; βAla = NCCC(=O)O

Among the test systems are NCI-H460 lung; M14 melanoma; EKVX NSCLC; HT29 colon; KM12 colon; HOP-92 NSCLC; RPMI-8226 leukemia; HCT-116 colon; OVCAR-5 ovarian; DU-145 prostate.
What all share (experiment): NCI anticancer screen, dose series, 48 h

With `C=C(Cl)C(Cl)(CBr)CCC(Br)C(C)(C)Br` (stereo not given), the TGI in the assay on NCI-H460 lung was 3.71 µM; with M14 melanoma it was 33.6 µM; in the assay with EKVX NSCLC, 15.6 µM; with HT29 colon it was 2.41 µM; with KM12 colon it was 3.45 µM; with HOP-92 NSCLC it was 4.38 µM. For the same compound, the TGI with RPMI-8226 leukemia was 2.01 µM; in the assay with HCT-116 colon, 4.04 µM; in the assay with OVCAR-5 ovarian, 25.4 µM; in the assay with DU-145 prostate, 11.9 µM.
For `Cc1ccc2c(c1)C(=C(C#N)C#N)CCCS2(=O)=O`, the TGI with NCI-H460 lung, in the assay on M14 melanoma, in the assay with EKVX NSCLC, with HT29 colon, with KM12 colon and in the assay on HOP-92 NSCLC was over 100 µM each time. Also, the TGI in the assay on RPMI-8226 leukemia, in the assay on HCT-116 colon, in the assay on OVCAR-5 ovarian and in the assay with DU-145 prostate was over 100 µM throughout.
Regarding `Cc1cc(S(=O)(=O)Nc2n[nH]c(-c3ccc(Cl)cc3)n2)c(SSc2cc(Cl)c(C)cc2S(=O)(=O)Nc2n[nH]c(-c3ccc(Cl)cc3)n2)cc1Cl`, the TGI with NCI-H460 lung was 62.4 µM; in the assay with M14 melanoma, over 100 µM; in the assay with EKVX NSCLC it was 89.6 µM; with HT29 colon it was 57.2 µM; in the assay with KM12 colon, 77.4 µM; in the assay on HOP-92 NSCLC, 76.8 µM. For the same compound, the TGI in the assay on RPMI-8226 leukemia was over 100 µM; in the assay with HCT-116 colon it was over 100 µM; with OVCAR-5 ovarian it was 86.9 µM; with DU-145 prostate, over 100 µM.
Regarding `OC1(C(Sc2cc(C(F)(F)F)cc(C(F)(F)F)c2)Sc2cc(C(F)(F)F)cc(C(F)(F)F)c2)C=CCCC1` (stereo not given), the TGI worked out at 3.55 µM in the assay on NCI-H460 lung; 6.53 µM in the assay with M14 melanoma; 6.78 µM in the assay on EKVX NSCLC; 7.24 µM in the assay on HT29 colon; 5.83 µM in the assay with KM12 colon; 9.15 µM in the assay on HOP-92 NSCLC. Besides, the TGI in the assay on RPMI-8226 leukemia is 4.8 µM; with HCT-116 colon it was 6.74 µM; in the assay with OVCAR-5 ovarian, 6.6 µM; in the assay with DU-145 prostate it was 8.99 µM.
For `CC1(C)NC(=O)C(NC(=O)C(N)CC(=O)O)CCCCNC(=O)CCNC1=O` (stereo not given) (H-DK[Aib][βAla]; lactam 2-C; configuration not given here), the TGI in the assay with NCI-H460 lung, in the assay on M14 melanoma, in the assay on EKVX NSCLC, in the assay on HT29 colon, in the assay with KM12 colon and in the assay with HOP-92 NSCLC was over 100 µM in each case. In addition, the TGI with RPMI-8226 leukemia, in the assay with HCT-116 colon, in the assay with OVCAR-5 ovarian and with DU-145 prostate was over 100 µM throughout.
On to `N#C/C(=C\c1ccc(F)cc1)c1nc(-c2cc3ccccc3oc2=O)cs1`, for which the TGI in the assay with NCI-H460 lung is over 100 µM; with M14 melanoma, 50.7 µM; in the assay with EKVX NSCLC, over 100 µM; with HT29 colon it was over 100 µM; in the assay with KM12 colon, over 100 µM; in the assay on HOP-92 NSCLC, 29.5 µM. Further, the TGI in the assay on RPMI-8226 leukemia, in the assay with HCT-116 colon, with OVCAR-5 ovarian and in the assay with DU-145 prostate was over 100 µM each time.
As for `COc1ccc(C2SC(N)=Nc3c2c(C)nn3C(=O)c2ccccc2O)cc1OC` (stereo not given), the TGI with NCI-H460 lung was over 10 µM; with M14 melanoma it was over 10 µM; in the assay with EKVX NSCLC, over 10 µM; in the assay with HT29 colon it was over 10 µM; in the assay with KM12 colon, over 10 µM; in the assay with HOP-92 NSCLC, 4.36 µM. The TGI with RPMI-8226 leukemia is over 10 µM; in the assay with HCT-116 colon it was 7.47 µM; in the assay on OVCAR-5 ovarian it was over 10 µM; with DU-145 prostate it was over 10 µM.
For `Cc1c(C)c2ccc(OCC(O)COC(C)C)c(C)c2oc1=O` (stereo not given), the TGI was 34.6 µM with NCI-H460 lung; 42 µM in the assay on M14 melanoma; over 100 µM in the assay on EKVX NSCLC; over 100 µM in the assay on HT29 colon; over 100 µM in the assay with KM12 colon; over 100 µM with HOP-92 NSCLC. Moreover, the TGI with RPMI-8226 leukemia was 44.4 µM; in the assay on HCT-116 colon it was 36 µM; in the assay on OVCAR-5 ovarian, over 100 µM; in the assay on DU-145 prostate, over 100 µM.
As to `Cc1cc(NC2=CC(=O)C(=O)c3ccccc32)no1`, the TGI with NCI-H460 lung worked out at 23.3 µM; in the assay with M14 melanoma, 28.3 µM; in the assay with EKVX NSCLC it was 31.5 µM; in the assay on HT29 colon it was 28.3 µM; with KM12 colon, 29.7 µM; with HOP-92 NSCLC it was 30.1 µM. Moreover, the TGI was determined as 32.5 µM with RPMI-8226 leukemia, 34.4 µM in the assay on HCT-116 colon, 18.1 µM with OVCAR-5 ovarian and 30.1 µM in the assay on DU-145 prostate.
For the compound `CC(/C=C/C(=O)NO)=C\C(C)C(=O)c1ccc(N(C)C)cc1` (stereo not given), the TGI in the assay with NCI-H460 lung is 0.0658 µM; with M14 melanoma it was 0.971 µM; in the assay on EKVX NSCLC, 41 µM; in the assay on HT29 colon, over 100 µM; with KM12 colon, 0.932 µM; in the assay on HOP-92 NSCLC it was 0.388 µM. Further, the TGI with RPMI-8226 leukemia amounted to 74.1 µM; in the assay with HCT-116 colon it was 11.5 µM; in the assay on OVCAR-5 ovarian, 4.6 µM; in the assay on DU-145 prostate, 0.0792 µM.
As to `CCOC1CN=C(Nc2cccc3ccccc23)S1` (stereo not given), the TGI in the assay on NCI-H460 lung, in the assay with M14 melanoma, in the assay on EKVX NSCLC, in the assay with HT29 colon, in the assay with KM12 colon and in the assay with HOP-92 NSCLC was over 10 µM throughout. For the same compound, the TGI in the assay on RPMI-8226 leukemia, in the assay with HCT-116 colon, in the assay with OVCAR-5 ovarian and with DU-145 prostate was over 10 µM each time.
